Test results as given in ChEMBL document CHEMBL3880421, “Indazole compounds and pharmaceutical compositions for inhibiting protein kinases, and methods for their use” (2003).

assay: Terminal half life in B6 mouse at 25 mg/kg, ip by UV-HPLC analysis; assay type: ADME, organism-based; details: in vivo, read-out: beta t1/2 (converted)

In order of falling half-life:
1. O=C(Nc1cccc(Oc2ccc3c(/C=C/c4ccccn4)n[nH]c3c2)c1)c1ccccc1  2.4 h
2. CCOCCNC(=O)c1ccccc1Sc1ccc2c(/C=C/c3ccccn3)n[nH]c2c1  1.8 h
3. CC(=O)c1ccc(C(=O)Nc2cccc(C(=O)c3ccc4c(/C=C/c5ccccn5)n[nH]c4c3)c2)s1  1.6 h

assay: Terminal half life in B6 mouse at 50 mg/kg, po by UV-HPLC analysis; assay type: ADME, organism-based; details: B6, mouse, in vivo, read-out: beta t1/2 (converted)

In order of rising half-life:
1. CC(C)ONC(=O)c1ccccc1Sc1ccc2c(/C=C/c3ccccn3)n[nH]c2c1  1.1 h
2. CC(=O)c1ccc(C(=O)Nc2cccc(C(=O)c3ccc4c(/C=C/c5ccccn5)n[nH]c4c3)c2)s1  1.6 h

same assay, conditions: mouse, in vivo, BLD = below limit of detection

In the case of `O=C(Nc1cccc(C(=O)c2ccc3c(-c4nc5cccnc5[nH]4)n[nH]c3c2)c1)c1ccccc1`, the “beta t1/2” value is reported as “Bld”.
In the case of `Cc1cc(C(=O)Nc2cccc(C(=O)c3ccc4c(/C=C/c5ccccn5)n[nH]c4c3)c2)on1`, the “beta t1/2” value is reported as “Bld”.

assay: Antiproliferative activity against VEGF-stimulated HUVEC cells assessed as reduction in cell viability at 10 nM preincubated for 1 hr followed by addition of VEGF measured after 72 hrs by MTT assay; assay type: functional; details: Homo sapiens

In order of rising inhibition at 0.01 µM:
1. O=C(Cn1ccc2ccccc21)Nc1cccc(C(=O)c2ccc3c(/C=C/c4ccccc4)n[nH]c3c2)c1  -11%
2. O=C(Nc1cccc(Nc2ccc3c(/C=C/c4ccccc4)n[nH]c3c2)c1)[C@H]1CCC[C@H]1O  -4%
3. CC(=O)N1CCCC1C(=O)Nc1cccc(Nc2ccc3c(/C=C/c4ccccc4)n[nH]c3c2)c1 (centres undefined)  -2%
4. CN1CCC=C(C(=O)Nc2cccc(Nc3ccc4c(/C=C/c5ccccc5)n[nH]c4c3)c2)C1  0%
5. CC(C)=CC1C(C(=O)Nc2cccc(C(=O)c3ccc4c(/C=C/c5ccccc5)n[nH]c4c3)c2)C1(C)C (centres undefined)  3%
6. O=C(Nc1cccc(Oc2ccc3c(/C=C/c4ccccc4)n[nH]c3c2)c1)c1ccc(=O)oc1  5%
7. C[C@@H]1[C@H](C)[C@H](C)C[C@@H]1C(=O)Nc1cccc(C(=O)c2ccc3c(/C=C/c4ccccc4)n[nH]c3c2)c1  5%
8. O=C(Nc1cccc(Nc2ccc3c(/C=C/c4ccccc4)n[nH]c3c2)c1)C1C[C@H]2C=C[C@H]1C2 (some centres undefined)  5%
9. O=C(Nc1cccc(Nc2ccc3c(/C=C/c4ccccc4)n[nH]c3c2)c1)C1=C[C@@H](O)[C@@H](O)[C@H](O)C1  6%
10. CC(=O)N1CCCC1C(=O)Nc1cccc(C(=O)c2ccc3c(/C=C/c4ccccc4)n[nH]c3c2)c1 (centres undefined)  10%
11. COc1ccccc1/C=C/C(=O)Nc1cccc(Nc2ccc3c(/C=C/c4ccccc4)n[nH]c3c2)c1  10%
12. CC(C)CC(=O)C(=O)Nc1cccc(Nc2ccc3c(/C=C/c4ccccc4)n[nH]c3c2)c1  11%
13. O=C(Cc1ccccc1)C(=O)Nc1cccc(Nc2ccc3c(/C=C/c4ccccc4)n[nH]c3c2)c1  11%
14. CC(=O)N1CCCC1C(=O)Nc1cccc(Oc2ccc3c(/C=C/c4ccccc4)n[nH]c3c2)c1 (centres undefined)  19%
15. Cc1nc(S)sc1CC(=O)Nc1cccc(Nc2ccc3c(/C=C/c4ccccc4)n[nH]c3c2)c1  19%
16. CN1CCC=C(C(=O)Nc2cccc(C(=O)c3ccc4c(/C=C/c5ccccc5)n[nH]c4c3)c2)C1  20%
17. O=C(Cc1cccnc1)Nc1cccc(C(=O)c2ccc3c(/C=C/c4ccccc4)n[nH]c3c2)c1  21%
18. O=C1NCC(C(=O)Nc2cccc(C(=O)c3ccc4c(/C=C/c5ccccc5)n[nH]c4c3)c2)N1 (centres undefined)  21%
19. CC1(C)OC(=O)[C@H](CC(=O)Nc2cccc(Oc3ccc4c(/C=C/c5ccccc5)n[nH]c4c3)c2)O1  22%
20. C[C@@H]1[C@H](C)[C@H](C)C[C@@H]1C(=O)Nc1cccc(Oc2ccc3c(/C=C/c4ccccc4)n[nH]c3c2)c1  23%
21. O=C(Nc1cccc(Nc2ccc3c(/C=C/c4ccccc4)n[nH]c3c2)c1)C1CCCO1 (centres undefined)  23%
22. CC1(C)C(C(=O)Nc2cccc(Nc3ccc4c(/C=C/c5ccccc5)n[nH]c4c3)c2)C1(C)C  25%
23. CC1(C)OC(=O)CC1C(=O)Nc1cccc(Oc2ccc3c(/C=C/c4ccccc4)n[nH]c3c2)c1 (centres undefined)  25%
24. C[C@@H](CC(=O)Nc1cccc(Nc2ccc3c(/C=C/c4ccccc4)n[nH]c3c2)c1)c1ccccc1  27%
25. O=C(CCN1CCCCC1)Nc1cccc(Nc2ccc3c(/C=C/c4ccccc4)n[nH]c3c2)c1  30%
26. CO[C@H](C(=O)Nc1cccc(Oc2ccc3c(/C=C/c4ccccc4)n[nH]c3c2)c1)c1ccccc1  30%
27. CN(C)CCCC(=O)Nc1cccc(Nc2ccc3c(/C=C/c4ccccc4)n[nH]c3c2)c1  30%
28. CN(C)C(=S)SCC(=O)Nc1cccc(Nc2ccc3c(/C=C/c4ccccc4)n[nH]c3c2)c1  32%
29. COc1cccc(CC(=O)Nc2cccc(Nc3ccc4c(/C=C/c5ccccc5)n[nH]c4c3)c2)c1  34%
30. CC(=O)NC(C)(C)CC(=O)Nc1cccc(C(=O)c2ccc3c(/C=C/c4ccccc4)n[nH]c3c2)c1  35%
31. CC(C)c1ccccc1C(=O)Nc1cccc(Oc2ccc3c(/C=C/c4ccccc4)n[nH]c3c2)c1  35%
32. O=C(Nc1cccc(Oc2ccc3c(/C=C/c4ccccc4)n[nH]c3c2)c1)C1CC2CC(O)C1C2 (centres undefined)  38%
33. COc1ccccc1/C=C/C(=O)Nc1cccc(C(=O)c2ccc3c(/C=C/c4ccccc4)n[nH]c3c2)c1  47%
34. CCNc1ccccc1C(=O)Nc1cccc(C(=O)c2ccc3c(/C=C/c4ccccc4)n[nH]c3c2)c1  54%
35. O=C(Nc1cccc(Oc2ccc3c(/C=C/c4ccccc4)n[nH]c3c2)c1)C(O)c1ccccc1 (centres undefined)  56%
36. O=C(Nc1cccc(Oc2ccc3c(/C=C/c4ccccc4)n[nH]c3c2)c1)C(=O)C1=CCCCC1  57%
37. O=C(c1cccc(NC(=O)c2cccc3cc[nH]c23)c1)c1ccc2c(/C=C/c3ccccc3)n[nH]c2c1  58%
38. O=C(c1cccc(NC(=O)C2CC3CC(O)C2C3)c1)c1ccc2c(/C=C/c3ccccc3)n[nH]c2c1 (centres undefined)  64%
39. Cc1ccc(CCC(=O)Nc2cccc(Oc3ccc4c(/C=C/c5ccccc5)n[nH]c4c3)c2)cc1  70%
40. Cc1cc(C(=O)Nc2cccc(Nc3ccc4c(/C=C/c5ccccc5)n[nH]c4c3)c2)c(C)[nH]1  76%
41. O=C(Cc1cc(F)cc(F)c1)Nc1cccc(Nc2ccc3c(/C=C/c4ccccc4)n[nH]c3c2)c1  77%
42. O=C(Cc1cc(F)cc(F)c1)Nc1cccc(Oc2ccc3c(/C=C/c4ccccc4)n[nH]c3c2)c1  80%
43. CC(C)CC(=O)C(=O)Nc1cccc(C(=O)c2ccc3c(/C=C/c4ccccc4)n[nH]c3c2)c1  81%
44. O=C(CC1=CCCCC1)Nc1cccc(Nc2ccc3c(/C=C/c4ccccc4)n[nH]c3c2)c1  81%
45. O=C(Cc1c(F)cccc1F)Nc1cccc(C(=O)c2ccc3c(/C=C/c4ccccc4)n[nH]c3c2)c1  81%
46. O=C(Nc1cccc(Oc2ccc3c(/C=C/c4ccccc4)n[nH]c3c2)c1)C1C[C@H]2C=C[C@H]1C2 (some centres undefined)  82%
47. CCNc1ccccc1C(=O)Nc1cccc(Oc2ccc3c(/C=C/c4ccccc4)n[nH]c3c2)c1  85%
48. CCO/C(C)=C/C(=O)Nc1cccc(Oc2ccc3c(/C=C/c4ccccc4)n[nH]c3c2)c1  87%
49. O=C(CC1CC2CCC1C2)Nc1cccc(Nc2ccc3c(/C=C/c4ccccc4)n[nH]c3c2)c1 (centres undefined)  87%
50. O=C(Nc1cccc(Oc2ccc3c(/C=C/c4ccccc4)n[nH]c3c2)c1)c1cc(=O)[nH]c(=O)[nH]1  90%
51. O=C(Cc1c(F)cccc1F)Nc1cccc(Oc2ccc3c(/C=C/c4ccccc4)n[nH]c3c2)c1  93%
52. CC1CC1C(=O)Nc1cccc(C(=O)c2ccc3c(/C=C/c4ccccc4)n[nH]c3c2)c1 (centres undefined)  96%
